Results taken from PubChem BioAssay AID2060487 (Molecular Pharmacology Branch, DTP, NCI, 2025).

Tested on: 997537-175-T-J1-PDC complex spheroid viability
Experiment: Anticancer human tumor 997537-175-T-J1-PDC patient-derived colon adenocarcinoma cell line growth inhibition [GQUAD]
Settings: for IC50: curve of first compound; for viability, T/C: stronger effect = lower value
Description: DNA G-quadruplex Stabilizer Agents in Combinations in Complex Spheroids
A high-throughput screen of multi-cell type tumor spheroids was designed to identify active combinations of DNA G-quadruplex stabilizer agents and targeted small molecules. Complex spheroids include a stromal component modeled by human endothelial cells (HUVEC) and fibroblasts modeled by human mesenchymal stem cells (MSCs). The concentration ranges selected for each drug and investigational agent were based upon clinically achievable concentrations if the clinical Cmax of the agent was known.
Compounds. The drugs and investigational agents: pidnarulex (CX-5461; NSC782164), APTO-253 (NSC789042), BRACO-19 (NSC847499), peposertib (NSC802822), ceralasertib (NSC780249), elimusertib (NSC800525), camonsertib (NSC841442), AZD-1390 (NSC803789), olaparib (NSC753686), talazoparib (NSC767125), ART-558 (NSC835418), sotorasib (NSC818433), MRTX-1133 (NSC836407), SN-38 (NSC673596), topotecan (NSC609699), etoposide (NSC141540), doxorubicin (NSC123127), gemcitabine (NSC613327), 5-fluorouracil (NSC19893), paclitaxel (NSC125973), vemurafenib (NSC761431), panobinostat (NSC761190), R-306465 (JNJ-16241199; NSC773264), adavosertib (NSC754352), TP-3654 (NSC805149), carboplatin (NSC241240), KSQ-4279 (NSC840948), and staurosporine (NSC755774) were obtained from the National Cancer Institute (NCI) Developmental Therapeutics Program Chemical Repository (34). The FDA-approved anticancer drug set is available from the NCI Developmental Therapeutics Program. […] The stock solutions were prepared in dimethyl sulfoxide (DMSO, Sigma-Aldrich, St. Louis, MO, cat. D2650) at 800-fold the tested concentration and stored at -70 degrees C prior to their use. All drugs and investigational agents were tested over a range starting from a high concentration at or near the clinical Cmax and decreasing in half-log increments. If the clinical Cmax for an agent had not been determined, the highest concentration tested was 10 microM.
2.3 Cell Culture. All cells were maintained in an incubator at 37 degrees C and 5% CO2 with 95% humidity. The PDC lines were cultured according to standard operating procedures established by the NCI PDMR. All PDCs were thawed and cultured in Matrigel-coated flasks prepared with a working solution of 1X Ham's F-12 nutrient mix, without supplementation (Invitrogen, cat. 11765054), 100 U/mL penicillin-streptomycin (Invitrogen, cat. 15140122), and 2.5% Matrigel (Corning Inc., cat. 354248) for the first three passages. The 857933-349-R-J2-PDC line was cultured in 6C/Colon 1B media, which includes advanced DMEM/F-12 (Thermo Fisher Scientific, cat. 12634028), 10 mM HEPES (Thermo Fisher Scientific, cat. 15630080), 1X GlutaMAX supplement (Thermo Fisher Scientific, cat. 35050061), 0.1 mg/mL primocin (InvivoGen, cat. ant-pm-2), 10% defined fetal bovine serum, heat inactivated (HyClone Laboratories Inc., cat. SH30070.03HI), 50% L-WRN conditioned media (ATCC, cat. CRL-3276), 1.25 mM N-Acetyl-L-cysteine (Sigma-Aldrich, cat. A9165), 10 mM nicotinamide (Sigma-Aldrich, cat. N0636), 1X B-27 supplement (Thermo Fisher Scientific, cat. 17504044), 1X N-2 supplement (Thermo Fisher Scientific, cat. 17502048), 10 microM Y-27632 dihydrochloride (Tocris Bioscience, cat. 1254), and 50 ng/mL human EGF recombinant protein (Thermo Fisher Scientific, cat. PHG0311). The 485176-168-R4-J1-PDC line was cultured in Panc media, which includes all 6C/Colon 1B media components plus 100 ng/mL human FGF-10 (Thermo Fisher Scientific, cat. 100-26), 500 nM SB-431542 (Selleckchem, cat. S1067), and gastrin (Tocris, cat. 3006).
[…]

[1] = second compound 0.0316 µM, first compound 0.0316 µM
[2] = second compound 0.0316 µM, first compound 0.316 µM
[3] = second compound 0.1 µM, first compound 0.0316 µM
[4] = second compound 0.1 µM, first compound 0.316 µM
[5] = second compound 0.316 µM, first compound 0.0316 µM
[6] = second compound 0.316 µM, first compound 0.316 µM
[7] = second compound 1 µM, first compound 0.0316 µM
[8] = second compound 1 µM, first compound 0.316 µM
[9] = second compound 3.16 µM, first compound 0.0316 µM
[10] = second compound 3.16 µM, first compound 0.316 µM
[11] = second compound 10 µM, first compound 0.0316 µM
[12] = second compound 10 µM, first compound 0.316 µM
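Note: spheroids exposed to the agents for 7 days.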
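Throughout, for viability, T/C: 100% = DMSO vehicle control viability.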

Question: What does the source list for `Cn1ncnc1[C@H]1c2n[nH]c(=O)c3cc(F)cc(c23)N[C@@H]1c1ccc(F)cc1` + Cc1[nH]c2ccc(F)cc2c1-c1nc2c3cccnc3c3ncccc3c2[nH]1?
Answer: IC50 (second compound 0.0316 µM): > 0.316 µM; IC50 (second compound 0.1 µM): > 0.316 µM; IC50 (second compound 0.316 µM): > 0.316 µM; IC50 (second compound 1 µM): > 0.316 µM; IC50 (second compound 3.16 µM): > 0.316 µM; IC50 (second compound 10 µM): > 0.316 µM; viability, T/C (second compound 0.0316 µM, first compound 0.000999 µM): 101%; viability, T/C (second compound 0.0316 µM, first compound 0.00316 µM): 99.5%; viability, T/C (second compound 0.0316 µM, first compound 0.00999 µM): 104%; viability, T/C [1]: 71%; viability, T/C (second compound 0.0316 µM, first compound 0.0999 µM): 82.5%; viability, T/C [2]: 83.1%; viability, T/C (second compound 0.1 µM, first compound 0.000999 µM): 103%; viability, T/C (second compound 0.1 µM, first compound 0.00316 µM): 102%; viability, T/C (second compound 0.1 µM, first compound 0.00999 µM): 84.4%; viability, T/C [3]: 65.1%; viability, T/C (second compound 0.1 µM, first compound 0.0999 µM): 106%; viability, T/C [4]: 96.2%; viability, T/C (second compound 0.316 µM, first compound 0.000999 µM): 102%; viability, T/C (second compound 0.316 µM, first compound 0.00316 µM): 103%; viability, T/C (second compound 0.316 µM, first compound 0.00999 µM): 87.1%; viability, T/C [5]: 75.8%; viability, T/C (second compound 0.316 µM, first compound 0.0999 µM): 99.7%; viability, T/C [6]: 93.1%; viability, T/C (second compound 1 µM, first compound 0.000999 µM): 83.7%; viability, T/C (second compound 1 µM, first compound 0.00316 µM): 74.6%; viability, T/C (second compound 1 µM, first compound 0.00999 µM): 91.2%; viability, T/C [7]: 81.3%; viability, T/C (second compound 1 µM, first compound 0.0999 µM): 96.5%; viability, T/C [8]: 87.8%; viability, T/C (second compound 3.16 µM, first compound 0.000999 µM): 84.7%; viability, T/C (second compound 3.16 µM, first compound 0.00316 µM): 73.2%; viability, T/C (second compound 3.16 µM, first compound 0.00999 µM): 73.3%; viability, T/C [9]: 70.6%; viability, T/C (second compound 3.16 µM, first compound 0.0999 µM): 101%; viability, T/C [10]: 84.2%; viability, T/C (second compound 10 µM, first compound 0.000999 µM): 78%; viability, T/C (second compound 10 µM, first compound 0.00316 µM): 61.3%; viability, T/C (second compound 10 µM, first compound 0.00999 µM): 89.8%; viability, T/C [11]: 62.9%; viability, T/C (second compound 10 µM, first compound 0.0999 µM): 92.5%; viability, T/C [12]: 95.3%

Question: With `COc1ccc([C@@H](O)c2cc(-c3ncnc4cc(N5CCOCC5)ccc34)c(F)cc2Cl)nn1` + Cc1cnc(CNC(=O)c2c(=O)c3ccc(N4CCCN(C)CC4)nc3n3c2sc2ccccc23)cn1 as the compound, how does the IC50 (second compound 0.0316 µM) read?
Answer: Its IC50 is over 10 µM.

Question: What about the IC50 (second compound 0.1 µM) of the same compound?
Answer: Its IC50 is over 10 µM.

Question: And the IC50 (second compound 0.316 µM)?
Answer: The IC50 was over 10 µM.

Question: What about the IC50 (second compound 1 µM) of the same compound?
Answer: Its IC50 is 9.86 µM.

Question: What about the IC50 (second compound 3.16 µM) of the same compound?
Answer: Its IC50 is over 10 µM.

Question: What about the IC50 (second compound 10 µM) of the same compound?
Answer: Its IC50 is over 10 µM.

Question: And the viability, T/C [1]?
Answer: The viability, T/C was 102%.

Question: And the viability, T/C (second compound 0.0316 µM, first compound 0.1 µM)?
Answer: The viability, T/C was 93.6%.

Question: What about the viability, T/C [2] of the same compound?
Answer: The viability, T/C was 100%.

Question: And the viability, T/C (second compound 0.0316 µM, first compound 1 µM)?
Answer: The viability, T/C was 63.3%.

Question: What about the viability, T/C (second compound 0.0316 µM, first compound 3.16 µM) of the same compound?
Answer: Its viability, T/C is 81.1%.

Question: What about the viability, T/C (second compound 0.0316 µM, first compound 10 µM) of the same compound?
Answer: Its viability, T/C is 63.9%.

Question: And the viability, T/C [3]?
Answer: Its viability, T/C is 97.5%.

Question: What about the viability, T/C (second compound 0.1 µM, first compound 0.1 µM) of the same compound?
Answer: The viability, T/C was 94.7%.

Question: What about the viability, T/C [4] of the same compound?
Answer: The viability, T/C was 73.9%.

Question: And the viability, T/C (second compound 0.1 µM, first compound 1 µM)?
Answer: The viability, T/C was 84.7%.

Question: What about the viability, T/C (second compound 0.1 µM, first compound 3.16 µM) of the same compound?
Answer: Its viability, T/C is 77.2%.

Question: What about the viability, T/C (second compound 0.1 µM, first compound 10 µM) of the same compound?
Answer: The viability, T/C was 86.9%.

Question: And the viability, T/C [5]?
Answer: Its viability, T/C is 87.3%.

Question: And the viability, T/C (second compound 0.316 µM, first compound 0.1 µM)?
Answer: The viability, T/C was 106%.

Question: And the viability, T/C [6]?
Answer: Its viability, T/C is 107%.

Question: What about the viability, T/C (second compound 0.316 µM, first compound 1 µM) of the same compound?
Answer: Its viability, T/C is 94.8%.

Question: What about the viability, T/C (second compound 0.316 µM, first compound 3.16 µM) of the same compound?
Answer: The viability, T/C was 113%.

Question: And the viability, T/C (second compound 0.316 µM, first compound 10 µM)?
Answer: The viability, T/C was 65.2%.

Question: And the viability, T/C [7]?
Answer: Its viability, T/C is 82.3%.

Question: And the viability, T/C (second compound 1 µM, first compound 0.1 µM)?
Answer: The viability, T/C was 87.5%.

Question: What about the viability, T/C [8] of the same compound?
Answer: Its viability, T/C is 89.3%.

Question: What about the viability, T/C (second compound 1 µM, first compound 1 µM) of the same compound?
Answer: Its viability, T/C is 87.8%.

Question: What about the viability, T/C (second compound 1 µM, first compound 3.16 µM) of the same compound?
Answer: Its viability, T/C is 98.1%.

Question: What about the viability, T/C (second compound 1 µM, first compound 10 µM) of the same compound?
Answer: The viability, T/C was 49.5%.

Question: What about the viability, T/C [9] of the same compound?
Answer: The viability, T/C was 81.7%.

Question: And the viability, T/C (second compound 3.16 µM, first compound 0.1 µM)?
Answer: Its viability, T/C is 88.8%.

Question: And the viability, T/C [10]?
Answer: Its viability, T/C is 98.1%.

Question: And the viability, T/C (second compound 3.16 µM, first compound 1 µM)?
Answer: Its viability, T/C is 107%.

Question: And the viability, T/C (second compound 3.16 µM, first compound 3.16 µM)?
Answer: The viability, T/C was 98.2%.

Question: And the viability, T/C (second compound 3.16 µM, first compound 10 µM)?
Answer: The viability, T/C was 71.2%.

Question: And the viability, T/C [11]?
Answer: The viability, T/C was 85.5%.

Question: And the viability, T/C (second compound 10 µM, first compound 0.1 µM)?
Answer: Its viability, T/C is 75.9%.

Question: What about the viability, T/C [12] of the same compound?
Answer: The viability, T/C was 86.3%.

Question: And the viability, T/C (second compound 10 µM, first compound 1 µM)?
Answer: Its viability, T/C is 117%.

Question: What about the viability, T/C (second compound 10 µM, first compound 3.16 µM) of the same compound?
Answer: Its viability, T/C is 86.9%.

Question: And the viability, T/C (second compound 10 µM, first compound 10 µM)?
Answer: Its viability, T/C is 72.8%.
